Experimental findings from patent publication US5236929A, “Compound UCA1064-B” (Kyowa Hakko Kogyo Co., Ltd., priority 1991, dated 1993) are described below.

Structures are written as SMILES. Converted amounts (≈) assume the structure as drawn. Some results are limits rather than exact numbers.

The test system of data set [1] is Mouse mammary cancer SC-4. The data set can be described thus: Anti-tumor activity against mouse mammary cancer SC-4 in BALB/c nu/nu nude mice. In kind it is in vivo. The settings on record: once a day, five days after start. The protocol:
Mouse mammary cancer SC-4 (8 mm^3) was subcutaneously implanted into BALB/c nu/nu nude mice (5-weeks-old, male) at ventral side using a trockar.
After the volume of the tumor reached 100-300 mm^3, UCA1064-B was subcutaneously administered near the tumor at a dose of 15 mg/kg once a day for 4 days. UCA1064-B was administered in the form of a suspension, which was prepared by triturating 10 mg of UCA1064-B with 20 μl of Tween 80 and then suspending the compound in 0.3% carboxymethyl cellulose (CMC).
For comparison, 100 mg/kg of cortisone was subcutaneously administered once a day for 5 days in a similar manner.
Five days after the start of administration, the anti-tumor activity was determined as T/C (T: the volume of the tumor of the test group, C: the volume of the tumor of the control group).

The subject of data set [2] is Bacillus subtilis No. 10707. In words: Antibacterial and antifungal activity, agar dilution method. In kind it is cell-based. The note with it: pH 7, read-out: Minimum Inhibitory Concentration (MIC). The procedure:
(§1) The minimum inhibitory concentration (MIC) of UCA1064-B against various bacteria and fungi was determined by the agar dilution method using a medium (pH 7) prepared by dissolving 3 g of Bacto-Tryptone (Difco Laboratories), 3 g of meat extract, 1 g of yeast extract, 1 g of glucose and 16 g of agar in 1 liter of water.
A general note: In agar dilution, organisms are placed on agar that contains the substance at set levels.

The test system of another data set is Candida krusei MTU12041. Described as above. The note with it: Pichia kudriavzevii, pH 7, read-out: Minimum Inhibitory Concentration (MIC). The data set is classed as cell-based. The procedure: as §1
Data set [3] deals with Enterococcus faecium ATCC10541. Described as above. In kind it is cell-based. The note with it: pH 7, read-out: Minimum Inhibitory Concentration (MIC). The protocol: as §1
Data set [4] relates to Klebsiella pneumoniae ATCC10031. Described as above. The data set is classed as cell-based. The settings on record: pH 7, read-out: Minimum Inhibitory Concentration (MIC). The procedure: as §1
Data set [5] concerns Saccharomyces cerevisiae MTU09001. The description is as above. In kind it is cell-based. The settings on record: pH 7, read-out: Minimum Inhibitory Concentration (MIC). The protocol: as §1
Data set [6] has as its system Salmonella typhi ATCC9992. Described as above. The data set is classed as cell-based. The settings on record: Salmonella enterica, pH 7, read-out: Minimum Inhibitory Concentration (MIC). The protocol:
as §1

The test system of data set [7] is Staphylococcus aureus ATCC6538P. Described as above. In kind it is cell-based. The settings on record: pH 7, read-out: Minimum Inhibitory Concentration (MIC). The procedure: as §1
Another data set concerns BALB 3T3/H-ras cells. The data set can be described thus: Growth inhibition against BALB 3T3 cells transformed by the oncogene H-ras (Giemsa staining). The data set is classed as cell-based. The procedure:
(B) Growth Inhibition Against BALB 3T3 Cells Transformed by the Oncogene H-Ras (Hereinafter Referred to as BALB 3T3/H-Ras Cells)
A BALB 3T3/H-ras cell suspension (3×10^4 cells/ml) prepared by suspending BALB 3T3/H-ras cells in a medium comprising DME medium (Nissui Pharmaceutical Co, Ltd.) and 10% fetal calf serum (hereinafter referred to as Medium A) was put into wells of a 96-well microtiter plate in an amount of 0.1 ml per well. After the plate was incubated at 37° C. for 20 hours in a CO2 -incubator, 0.1 ml of a sample of UCA1064-B appropriately diluted with Medium A was added to each well. The cells were further incubated at 37° C. for 72 hours in the CO2 -incubator. After the culture supernatant was removed, the residue was washed once with physiological saline and then treated with 0.1 ml of methanol for 10 minutes to fix the cells. […] After the staining solution was removed, the residue was washed once with 0.2 ml of water. Then, the dye was extracted with 0.2 ml of 0.1N hydrochloric acid and absorbance was measured at 620 nm with a microplate reader.

A short description of the next data set: Solubility. In kind it is physicochemical.

As to `C[C@]12CCC(=O)C=C1CC[C@@H]1[C@@H]2C(=O)C[C@@]2(C)[C@H]1CC[C@]2(O)C(=O)CO` [Cortisone, reference compound], the “T/C (tumor volume of test group / control group)” value in data set [1] (100 mg/kg × 5, subcutaneous, **P < 0.05 (Mann-Whitney U test)) amounted to 0.39.
The term IC50 denotes the concentration at which inhibition is half-maximal. Low values mean higher potency, high ones lower potency. In the case of `CC(C)C(C)CCC(C)C1CCN=C2C3=C(CCC21C)C1(C)CCC(O)CC1CC3` (stereo not shown) [UCA1064-B], the MIC was 20 µg/mL (≈ 48.3 µM) in [2]; 0.78 µg/mL (≈ 1.89 µM) with Candida krusei MTU12041; 40 µg/mL (≈ 96.7 µM) in data set [3]; greater than 100 µg/mL in data set [4]; 0.39 µg/mL (≈ 0.943 µM) in data set [5]; greater than 100 µg/mL in data set [6]. The MIC in data set [7] came out at 20 µg/mL (≈ 48.3 µM). Further, the IC50 in the data set on BALB 3T3/H-ras cells (Mus musculus, BALB/3T3, 72 hours, 37° C.) stood at 3.5 µg/mL (≈ 8.46 µM). Moreover, the “growth of cancer cells (conclusion in words)” value with BALB 3T3/H-ras cells (summary of the results shown (Tables 2 and 3)) is “inhibits the growth of cancer cells”. Further, in data set [1] (15 mg/kg × 4, subcutaneous near the tumor, *P < 0.01 (Mann-Whitney U test)), the “T/C (tumor volume of test group / control group)” value turned out to be 0.49. Further, the Solubility entry is “soluble in alcohol, acetone, ethyl acetate and chloroform” in the data set “Solubility” (alcohol, acetone, ethyl acetate and chloroform); “insoluble in water and hexane” in “Solubility” (water and hexane).
